Experimental data from patent US11649238B2, “Substituted pyrazolo[1,5-a]pyrimidines as PI4K inhibitors” (GLAXOSMITHKLINE INTELLECTUAL PROPERTY DEVELOPMENT LIMITED, priority 2018, dated 2023).

Target: T1, human PI4KIII-beta 13-828 (D316-330) (Homo sapiens, UniProt Q9UBF8)
T1 construct: human PI4KIII-beta 13-828 (D316-330)
Test: PI4 KB Activity Assay (ADP-GLO Kinase assay)
Type: biochemical
Conditions: 1 mM ATP, 60 μM phosphatidylinositol, 3 hours at room temperature; read-out: mean pIC50 (converted)
Method: The in vitro inhibition of human PI4KIII-beta 13-828 (D316-330) activity was determined by using the ADP-GLO Kinase assay kit from Promega. Inhibitors were dissolved in 100% DMSO at a concentration of 1 mM. Dilutions were prepared in 100% DMSO using a 1 in 3 serial step dilution. A 60 nL stamp from an 11-point titration was transferred to a white low volume 384 well Greiner assay plate ensuring a final DMSO concentration of 1% across the plate and a top final concentration of inhibitor of 10 μM. The PI4KIII-beta assay contained 25 mM Hepes pH 7.5 (NaOH), 10 mM MgCl2, 0.5 mM EGTA, 0.1% Triton X-100, 2 mM TCEP, and 0.1 mg/ml BSA, 1 mM ATP, 60 μM phosphatidylinositol, and 1.5 nM human PI4K-beta 13-828 (D316-330) in a total volume of 6 μL. The assay was initiated with the addition of enzyme, covered, and incubated at room temperature for 3 hours. The assays were stopped with the addition of 6 μl ADP-GLO Reagent containing 0.1% CHAPS to deplete the unconsumed ATP. The plates were incubated at room temperature for 60 min and then 12 μl of the Kinase Detection Reagent containing 0.1% CHAPS was added to convert ADP to ATP and introduce luciferase and luciferin. After 40 min incubation at room temperature the luminescent signal was read on a BMG Labtech PHERAstar FS with the following settings; Gain 3600, Focal height 13.7 mm, measurement interval time 1 s, Settling time 0.2 s. The inhibitory effect of the PI4K-beta activity of the compounds was evaluated by the IC50 of the response relative to the high, no compound, and low, no enzyme, controls by fitting to the four parameter dose response question.

T1 sequence (Q9UBF8 1-801 isoform Q9UBF8-2): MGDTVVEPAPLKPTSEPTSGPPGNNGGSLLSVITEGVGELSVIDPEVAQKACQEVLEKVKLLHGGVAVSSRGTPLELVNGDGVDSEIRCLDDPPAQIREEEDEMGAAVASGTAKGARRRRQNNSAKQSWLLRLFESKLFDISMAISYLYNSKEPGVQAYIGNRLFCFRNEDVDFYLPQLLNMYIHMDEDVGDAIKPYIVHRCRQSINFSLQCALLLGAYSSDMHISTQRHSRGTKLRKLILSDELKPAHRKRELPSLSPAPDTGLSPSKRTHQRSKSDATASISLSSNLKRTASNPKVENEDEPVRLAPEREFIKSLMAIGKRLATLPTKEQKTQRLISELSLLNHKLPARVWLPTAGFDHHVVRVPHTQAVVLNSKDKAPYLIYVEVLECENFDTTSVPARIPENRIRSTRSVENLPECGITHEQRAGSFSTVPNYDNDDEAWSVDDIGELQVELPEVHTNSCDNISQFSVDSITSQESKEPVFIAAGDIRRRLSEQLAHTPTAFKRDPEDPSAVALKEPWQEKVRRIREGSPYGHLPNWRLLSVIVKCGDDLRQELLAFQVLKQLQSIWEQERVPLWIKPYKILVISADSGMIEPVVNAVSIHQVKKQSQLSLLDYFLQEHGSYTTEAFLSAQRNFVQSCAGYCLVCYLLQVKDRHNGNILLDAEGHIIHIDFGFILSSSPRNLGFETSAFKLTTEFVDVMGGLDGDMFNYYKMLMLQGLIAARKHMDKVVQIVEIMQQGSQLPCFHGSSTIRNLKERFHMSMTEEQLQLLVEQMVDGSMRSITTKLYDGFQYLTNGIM

Row | Compound | IC50 [nM]
1 | CCC(O)c1cc(NCc2cccc(-c3nccn3C)c2)n2nc(C)c(-c3ccc(OC)c(S(=O)(=O)CCO)c3)c2n1 (single isomer, unassigned) [Compound 75, 1-(3-(3-((2-Hydroxyethyl)sulfonyl)-4-methoxyphenyl)-2-methyl-7-((3-(1-methyl-1H-imidazol-2-yl)benzyl)amino)pyrazolo[1,5-a]pyrimidin-5-yl)propan-1-ol] | ≤ 3.98
2 | COc1ccc(-c2c(C)nn3c(NCc4cccc(-n5cccn5)c4)cc(C(C)(C)O)nc23)cc1C(=O)N(C)CCCO [Compound 33] | ≤ 3.98
3 | Cc1nn2c(NCc3cccc(-n4cccn4)c3)cc(C(C)(C)O)nc2c1-c1ccc(Cl)c(C(=O)N(C)CCO)c1 [Compound 48] | ≤ 3.98
4 | Cc1ccc(-c2c(C)nn3c(NCc4cccc(-n5cccn5)c4)cc(C(C)(C)O)nc23)cc1C(=O)N(C)CCO [Compound 47] | ≤ 3.98
5 | Cc1ccc(-c2c(C)nn3c(NCc4cccc(-n5cccn5)c4)cc(C(C)(C)O)nc23)cc1C(=O)N(C)CCCO [Compound 34] | ≤ 3.98
6 | COc1ccc(-c2c(C)nn3c(NCc4cccc(-c5nccn5C)c4)cc(C4CCOCC4)nc23)cc1S(=O)(=O)CCO [Compound 64, 2-((2-Methoxy-5-(2-methyl-7-((3-(1-methyl-1H-imidazol-2-yl)benzyl)amino)-5-(tetrahydro-2H-pyran-4-yl)pyrazolo[1,5-a]pyrimidin-3-yl)phenyl)sulfonyl)ethan-1-ol] | ≤ 3.98
7 | Cc1ccc(-c2c(C)nn3c(NCc4cccc(-n5cccn5)c4)cc(C(C)(C)O)nc23)cc1C(=O)N1CC[C@H](O)C1 [Compound 50] | ≤ 3.98
8 | CCC(O)c1cc(NCc2cccc(-c3nccn3C)c2)n2nc(C)c(-c3ccc(OC)c(S(=O)(=O)CCO)c3)c2n1 (centres unmarked) [Compound 3] | ≤ 3.98
9 | Cc1nn2c(NCc3cccc(-c4nccn4C)c3)cc(C(C)O)nc2c1-c1ccc(Cl)c(C(=O)N(C)CCCO)c1 (centres unmarked) [Compound 10] | ≤ 3.98
10 | COc1ccc(-c2c(C)nn3c(NCc4cccc(-c5nccn5C)c4)cc(C(C)(C)CO)nc23)cc1S(=O)(=O)CCO [Compound 56, 2-(3-(3-((2-Hydroxyethyl)sulfonyl)-4-methoxyphenyl)-2-methyl-7-((3-(1-methyl-1H-imidazol-2-yl)benzyl)amino)pyrazolo[1,5-a]pyrimidin-5-yl)-2-methylpropan-1-ol] | ≤ 3.98
11 | Cc1nn2c(NCc3cccc(-c4nccn4C)c3)cc(C(C)O)nc2c1-c1ccc(Cl)c(C(=O)N2CC[C@H](O)C2)c1 (some centres unmarked) [Compound 14] | ≤ 3.98
12 | CCN(CCO)C(=O)c1cc(-c2c(C)nn3c(NCc4cccc(-c5nccn5C)c4)cc(C(C)O)nc23)ccc1OC (centres unmarked) [Compound 11] | ≤ 3.98
13 | CCN(CCO)C(=O)c1cc(-c2c(C)nn3c(NCc4cccc(-c5nccn5C)c4)cc(C(C)O)nc23)ccc1Cl (centres unmarked) [Compound 15, 2-chloro-N-ethyl-N-(2-hydroxyethyl)-5-(5-(1-hydroxyethyl)-2-methyl-7-((3-(1-methyl-1H-imidazol-2-yl)benzyl)amino)pyrazolo[1,5-a]pyrimidin-3-yl)benzamide] | ≤ 3.98
14 | Cc1ccc(-c2c(C)nn3c(NCc4cccc(-n5cccn5)c4)cc(C(C)(C)O)nc23)cc1C(=O)N1CCC[C@@H]1CO [Compound 35] | ≤ 3.98
15 | Cc1nn2c(NCc3cccc(-c4nccn4C)c3)cc(C(C)(C)O)nc2c1-c1ccc(Cl)c(C(=O)N2CCC[C@@H]2CO)c1 [Compound 24] | ≤ 3.98
16 | COc1ccc(-c2c(C)nn3c(NCc4cccc(-n5cccn5)c4)cc(C(C)(C)O)nc23)cc1C(=O)N1CC[C@H](O)C1 [Compound 52] | ≤ 3.98
17 | COc1ccc(-c2c(C)nn3c(NCc4cccc(-c5nccn5C)c4)cc(C(C)O)nc23)cc1C(=O)N(C)CCCO (centres unmarked) [Compound 9, 5-(5-(1-Hydroxyethyl)-2-methyl-7-((3-(1-methyl-1H-imidazol-2-yl)benzyl)amino)pyrazolo[1,5-a]pyrimidin-3-yl)-N-(3-hydroxypropyl)-2-methoxy-N-methylbenzamide] | ≤ 3.98
18 | COc1ccc(-c2c(C)nn3c(NCc4cccc(-n5cccn5)c4)cc(C(C)(C)O)nc23)cc1C(=O)N(C)CCO [Compound 46] | ≤ 3.98

Continued, values first:

Row | IC50 [nM] | Compound
19 | ≤ 3.98 | Cc1ccc(-c2c(C)nn3c(NCc4cccc(-c5nccn5C)c4)cc(C(C)(C)O)nc23)cc1C(=O)N(C)CC(C)O (centres unmarked) [Compound 61]
20 | ≤ 3.98 | COc1ccc(-c2c(C)nn3c(NCc4cccc(-c5nccn5C)c4)cc(C(C)(C)O)nc23)cc1C(=O)N1CCC[C@@H]1CO [Compound 36, (R)-(2-(hydroxymethyl)pyrrolidin-1-yl)(5-(5-(2-hydroxypropan-2-yl)-2-methyl-7-((3-(1-methyl-1H-imidazol-2-yl)benzyl)amino)pyrazolo[1,5-a]pyrimidin-3-yl)-2-methoxyphenyl)methanone]
21 | ≤ 3.98 | CCC(O)c1cc(NCc2cccc(-c3nccn3C)c2)n2nc(C)c(-c3ccc(C)c(C(=O)N(C)CCCO)c3)c2n1 (single isomer, unassigned) [Compound 69, N-(3-Hydroxypropyl)-5-(5-(1-hydroxypropyl)-2-methyl-7-((3-(1-methyl-1H-imidazol-2-yl)benzyl)amino)pyrazolo[1,5-a]pyrimidin-3-yl)-N,2-dimethylbenzamide]
22 | ≤ 3.98 | COc1ccc(-c2c(C)nn3c(NCc4cccc(-c5nccn5C)c4)cc(C(C)(C)O)nc23)cc1C(=O)N(C)CC(C)O (single isomer, unassigned) [Compound 83, 5-(5-(2-Hydroxypropan-2-yl)-2-methyl-7-((3-(1-methyl-1H-imidazol-2-yl)benzyl)amino)pyrazolo[1,5-a]pyrimidin-3-yl)-N-(2-hydroxypropyl)-2-methoxy-N-methylbenzamide]
23 | ≤ 3.98 | COc1ccc(-c2c(C)nn3c(NCc4cccc(-c5nccn5C)c4)cc(C(C)(C)O)nc23)cc1C(=O)N(C)CC(C)O (centres unmarked) [Compound 82, 5-(5-(2-Hydroxypropan-2-yl)-2-methyl-7-((3-(1-methyl-1H-imidazol-2-yl)benzyl)amino)pyrazolo[1,5-a]pyrimidin-3-yl)-N-(2-hydroxypropyl)-2-methoxy-N-methylbenzamide]
24 | ≤ 3.98 | COc1ccc(-c2c(C)nn3c(NCc4cccc(-c5nccn5C)c4)cc(C(C)(C)O)nc23)cc1C(=O)N(C)[C@@H](C)CO [Compound 20, (S)—N-(1-hydroxypropan-2-yl)-5-(5-(2-hydroxypropan-2-yl)-2-methyl-7-((3-(1-methyl-1H-imidazol-2-yl)benzyl)amino)pyrazolo[1,5-a]pyrimidin-3-yl)-2-methoxy-N-methylbenzamide]
25 | ≤ 3.98 | Cc1ccc(-c2c(C)nn3c(NCc4cccc(-c5nccn5C)c4)cc(C(C)(C)O)nc23)cc1C(=O)N(C)C1CCOCC1 [Compound 45]
26 | ≤ 3.98 | Cc1ccc(-c2c(C)nn3c(NCc4cccc(-c5nccn5C)c4)cc(C(C)(C)O)nc23)cc1C(=O)N1CC[C@H](O)C1 [Compound 29, (S)-(5-(5-(2-hydroxypropan-2-yl)-2-methyl-7-((3-(1-methyl-1H-imidazol-2-yl)benzyl)amino)pyrazolo[1,5-a]pyrimidin-3-yl)-2-methylphenyl)(3-hydroxypyrrolidin-1-yl)methanone]
27 | ≤ 3.98 | Cc1ccc(-c2c(C)nn3c(NCc4cccc(-c5nccn5C)c4)cc(C(C)(C)O)nc23)cc1C(=O)N1CCC[C@@H]1CO [Compound 25, (R)-(2-(hydroxymethyl)pyrrolidin-1-yl)(5-(5-(2-hydroxypropan-2-yl)-2-methyl-7-((3-(1-methyl-1H-imidazol-2-yl)benzyl)amino)pyrazolo[1,5-a]pyrimidin-3-yl)-2-methylphenyl)methanone]
28 | ≤ 3.98 | COc1ccc(-c2c(C)nn3c(NCc4cccc(-c5nccn5C)c4)cc(C(C)(C)O)nc23)cc1C(=O)N1CCCC1CO (centres unmarked) [Compound 44]
29 | ≤ 3.98 | Cc1ccc(-c2c(C)nn3c(NCc4cccc(-c5nccn5C)c4)cc(C(C)(C)O)nc23)cc1C(=O)N(C)C(C)CO (centres unmarked) [Compound 40]
30 | ≤ 3.98 | CCC(CO)c1cc(NCc2cccc(-c3nccn3C)c2)n2nc(C)c(-c3ccc(C)c(C(=O)N(C)CCCO)c3)c2n1 (single isomer, unassigned) [Compound 66, 5-(5-(1-Hydroxybutan-2-yl)-2-methyl-7-((3-(1-methyl-1H-imidazol-2-yl)benzyl)amino)pyrazolo[1,5-a]pyrimidin-3-yl)-N-(3-hydroxypropyl)-N,2-dimethylbenzamide]
31 | ≤ 3.98 | CCC(CO)c1cc(NCc2cccc(-c3nccn3C)c2)n2nc(C)c(-c3ccc(C)c(C(=O)N(C)CCCO)c3)c2n1 (centres unmarked) [Compound 65, 5-(5-(1-Hydroxybutan-2-yl)-2-methyl-7-((3-(1-methyl-1H-imidazol-2-yl)benzyl)amino)pyrazolo[1,5-a]pyrimidin-3-yl)-N-(3-hydroxypropyl)-N,2-dimethylbenzamide]
32 | ≤ 3.98 | CCC(O)(CC)c1cc(NCc2cccc(-c3nccn3C)c2)n2nc(C)c(-c3ccc(C)c(C(=O)N(C)CCCO)c3)c2n1 [Compound 68, 5-(5-(3-Hydroxypentan-3-yl)-2-methyl-7-((3-(1-methyl-1H-imidazol-2-yl)benzyl)amino)pyrazolo[1,5-a]pyrimidin3-yl)-N-(3-hydroxypropyl)-N,2-dimethylbenzamide]
